Article PMC10667816, “A Cell‐Penetrant Peptide Disrupting the Transcription Factor CP2c Complexes Induces Cancer‐Specific Synthetic Lethality” (Advanced Science, 2023)
pIC50: −log10 of the molar value. *1 amine or outer side, *2 acyl side, *3 side chain or, on linkers, in order; H or OH if unused. Where a SMILES comes first, the peptide text is derived from it. Side-chain parts run from the residue outwards. The star is where a group is joined. γGlu = O=C(O)[C@H](CCC(=O)[*:2])N[*:1]; Palmitoyl = CCCCCCCCCCCCCCCC(=O)*

Assays:
[1] = In vivo pharmacokinetics test; details: plasma; male CD‐1 (ICR) mouse, single intravenous 5 mg kg^−1, sampled 0.033–48 h, peripheral blood, noncompartmental analysis (Phoenix WinNonlin 6.3)
Description: A pharmacokinetics study was conducted at WuXiAppTec., Ltd. In this study, male CD‐1 (ICR) mouse was given a single intravenous injection of 5 mg kg^−1 of ACP52CGK. Blood samples were collected prior to dosing on day 0 and at various time points, including 0.033, 0.083, 0.25, 0.5, 1, 2, 6, 12, 24, and 48 h after dosing. The data collected from these samples were used to calculate pharmacokinetic parameters using the IV‐noncompartmental analysis model 201 in Phoenix WinNonlin version 6.3.
Figure S23. Pharmacokinetics analysis of ACP52CGK
A) PK parameters of ACP52CGK in CD-1(ICR) mice, calculated using the noncompartmental analysis
model 201 of Phoenix WinNonlin version 6.3. B) Mean plasma concentration of ACP52CGK at 0.033,

[2] = tested on: U343 glioma cells; assay: U343 CDX mouse model; type: in vivo; details: intravenous injection every 2 or 3 days from day 14
Description: Animal experiments were conducted in accordance with ethical guidelines, and all protocols were approved by the Institutional Animal Care and Use Committee under Hanyang University (approval numbers, 2014‐0016A, 2018‐0049A, 2018‐0207A, and 2019‐0169A), Chung‐Ang University (approval number, 2015‐00022), Chungbuk University (approval number, CBNUA‐1072‐17‐02), and Konkuk University (approval number, KU17130). To establish xenograft mice models, Hep3B, A431, U343, and PC9 cells were subcutaneously injected into the flank of Balb/c nude mice. For the MDA‐MB‐231 (LM1) cell line, it was implanted into the mammary fat pad of immunodeficient mice (NPG mice). […] Tumor volume was calculated using the formula of length × width^2)/2. […] The in vivo administration amount was determined based on the concentration of ACP52C confirmed at the cellular level, which was 2 µM. […] For ACP52C derivatives, the amount was adjusted to ensure a similar molar quantity of peptide injection, taking their molecular weights into account. For instance, in the case of ACP52CGK, ≈1.67 times the quantity was used compared to ACP52C to achieve an equivalent molar quantity. […] Hematoxylin and eosin (H&E)‐stained tissue sections were analyzed and photographed, and the representative histological images were recorded. […]

[3] = tested on: CP2c transcriptional targets (FN1, OCT4, and SNAI2) in HepG2 cells; assay: RT‐qPCR transcription inhibition of CP2c targets; type: cell-based, human; details: summary for both cell lines, 36 h after treatment; read-out: average TI50 (50% transcriptional inhibition) values of the three CP2c targets
Description: To quantify mRNA expression of the gene of interest, cells were harvested, and total cellular RNA was extracted using Qiazol reagent (Qiagen, 79306). Purified RNA was dissolved in Diethyl pyrocarbonate (DEPC) water. Reverse transcription was performed using a High‐Capacity cDNA reverse transcription kit (Toyobo, FSQ‐201) in the presence of 400 ng of total RNA and 10 pmol random hexamer. PCR was performed using rTaq Plus 5X PCR master mix (Elpis‐Biotech, EBT‐1319) and the SYBR green Master Mix Kit. Amplifications were performed using a Light cycler 1.5 real‐time PCR system.^[ [43] ^] The relative mRNA expression levels were determined using the 2(−ΔCt) method, with GAPDH transcript levels serving as an internal control. Errors were calculated from at least two independent experiments. Oligonucleotide primers used in RT–qPCR are listed in Table S2 (Supporting Information).

[4] = tested on: lung cancer cells and some blood cancer cells; assay: MTT growth inhibition in ACP52C‐resistant cells; type: cell-based, human; details: concentrations up to 1 mM
Description: Various cell lines were treated with peptides, either alone or in combination with the CASP2 inhibitor (Ac‐VDVAD‐CHO; Enzo ALX‐260‐058‐M001) at various concentrations for 4 days. Cell viability was assessed on day 2 or day 4 using MTT (3‐(4,5‐dimethylthiazol‐2‐yl)‐2,5‐diphenyltetrazolium bromide; Sigma–Aldrich, M2128) assay. In brief, fresh cells were seeded in flat‐bottomed 96‐well tissue culture plates at appropriate concentrations for each cell line per well using complete culture medium. The cells were incubated in 100 µL of culture medium containing various concentration of chemicals or peptides at 37 °C for 0 to 96 h. A solution of MTT (5 mg mL^−1) was added to the culture medium, and the cells were further incubated at 37 °C for an additional 3 h. The MTT medium was then removed, and the formazan crystals were dissolved in DMSO (100 µL per well). The formazan concentration was measured spectrophotometrically at 490 nm using a Varioskan Flash Spectral Scanning Multimode Reader (Thermo Scientific Korea). Nonlinear regression curves for growth inhibition and GI50 values for each cell line were estimated from independent replicates using the Prism (version 6) software (GraphPad Software Inc.)

Row | Structure (SMILES) | half-life [1] [h] | tumor weight [2] | pIC50 [3] | growth inhibition [4]
1 | CCCCCCCCCCCCCCCC(=O)N[C@@H](CCC(=O)NCCCC[C@H](NC(=O)CNC(=O)CNC(=O)[C@@H]1CCCN1C(=O)[C@H](CCCNC(=N)N)NC(=O)[C@H](CCC(N)=O)NC(=O)[C@@H]1CCCN1C(=O)[C@H](Cc1ccc(O)cc1)NC(=O)[C@H](CC(N)=O)NC(C)=O)C(=O)NCC(=O)NCC(=O)N[C@@H](CS)C(=O)N[C@@H](CCCNC(=N)N)C(=O)NCC(=O)N[C@@H](CC(=O)O)C(=O)N[C@@H](CCCCN)C(=O)NCC(=O)N1CCC[C@H]1C(=O)N[C@@H](CC(=O)O)C(=O)N[C@@H](CS)C(N)=O)C(=O)O [ACP52CGK] (Ac-NYPQRPGGK([γGlu-Palmitoyl])GGCRGDKGPDC-NH2) | ~5.26 |  |  | 
2 | CC(=O)N[C@@H](CC(N)=O)C(=O)N[C@@H](Cc1ccc(O)cc1)C(=O)N1CCC[C@H]1C(=O)N[C@@H](CCC(N)=O)C(=O)N[C@@H](CCCNC(=N)N)C(=O)N1CCC[C@H]1C(=O)N[C@@H](CS)C(=O)N[C@@H](CCCNC(=N)N)C(=O)NCC(=O)N[C@@H](CC(=O)O)C(=O)N[C@@H](CCCCN)C(=O)NCC(=O)N1CCC[C@H]1C(=O)N[C@@H](CC(=O)O)C(=O)N[C@@H](CS)C(N)=O [ACP52C] (Ac-NYPQRPCRGDKGPDC-NH2) |  | significantly reduced tumor weight | 4.40 to 4.46 | resistance
